Source: ChEMBL document CHEMBL5465560, “Selectivity Literature for EUbOPEN Chemogenomic Library” (2024)
Each block holds one compound with its values, some of them ahead of it.

How the values were obtained:
[1] = molecular target: T1, Interleukin-1 receptor-associated kinase 3 (Homo sapiens) (UniProt Q9Y616); experiment: Selectivity interaction (ActivX KiNativ screen (kinase selectivity in THP-1 cell lysates)) EUB0000639a IRAK3; format: subcellular; conditions: lysate
T1 sequence (whole entry): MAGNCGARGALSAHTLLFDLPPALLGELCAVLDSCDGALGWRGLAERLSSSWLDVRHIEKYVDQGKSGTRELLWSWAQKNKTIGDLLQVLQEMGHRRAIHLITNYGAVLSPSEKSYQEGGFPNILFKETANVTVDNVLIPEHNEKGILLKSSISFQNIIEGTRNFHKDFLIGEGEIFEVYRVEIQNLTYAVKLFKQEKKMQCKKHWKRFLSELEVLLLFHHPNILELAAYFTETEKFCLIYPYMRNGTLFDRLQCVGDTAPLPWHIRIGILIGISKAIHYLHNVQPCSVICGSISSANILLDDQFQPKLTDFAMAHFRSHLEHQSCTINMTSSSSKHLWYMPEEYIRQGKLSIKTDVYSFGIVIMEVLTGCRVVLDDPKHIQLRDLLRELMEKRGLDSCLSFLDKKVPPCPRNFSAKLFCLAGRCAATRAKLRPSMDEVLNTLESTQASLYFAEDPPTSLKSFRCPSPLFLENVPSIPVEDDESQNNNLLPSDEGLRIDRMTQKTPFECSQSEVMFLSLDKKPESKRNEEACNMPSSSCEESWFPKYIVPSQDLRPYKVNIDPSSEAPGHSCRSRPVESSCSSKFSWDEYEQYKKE

[2] = molecular target: Protein-tyrosine kinase 2-beta (Homo sapiens) (UniProt Q14289); experiment: Selectivity interaction (ActivX KiNativ screen (kinase selectivity in THP-1 cell lysates)) EUB0000639a PTK2B; format: subcellular; conditions: lysate, at 0.01 µM
Chain of Protein-tyrosine kinase 2-beta (Homo sapiens) (Q14289 whole entry, looked up): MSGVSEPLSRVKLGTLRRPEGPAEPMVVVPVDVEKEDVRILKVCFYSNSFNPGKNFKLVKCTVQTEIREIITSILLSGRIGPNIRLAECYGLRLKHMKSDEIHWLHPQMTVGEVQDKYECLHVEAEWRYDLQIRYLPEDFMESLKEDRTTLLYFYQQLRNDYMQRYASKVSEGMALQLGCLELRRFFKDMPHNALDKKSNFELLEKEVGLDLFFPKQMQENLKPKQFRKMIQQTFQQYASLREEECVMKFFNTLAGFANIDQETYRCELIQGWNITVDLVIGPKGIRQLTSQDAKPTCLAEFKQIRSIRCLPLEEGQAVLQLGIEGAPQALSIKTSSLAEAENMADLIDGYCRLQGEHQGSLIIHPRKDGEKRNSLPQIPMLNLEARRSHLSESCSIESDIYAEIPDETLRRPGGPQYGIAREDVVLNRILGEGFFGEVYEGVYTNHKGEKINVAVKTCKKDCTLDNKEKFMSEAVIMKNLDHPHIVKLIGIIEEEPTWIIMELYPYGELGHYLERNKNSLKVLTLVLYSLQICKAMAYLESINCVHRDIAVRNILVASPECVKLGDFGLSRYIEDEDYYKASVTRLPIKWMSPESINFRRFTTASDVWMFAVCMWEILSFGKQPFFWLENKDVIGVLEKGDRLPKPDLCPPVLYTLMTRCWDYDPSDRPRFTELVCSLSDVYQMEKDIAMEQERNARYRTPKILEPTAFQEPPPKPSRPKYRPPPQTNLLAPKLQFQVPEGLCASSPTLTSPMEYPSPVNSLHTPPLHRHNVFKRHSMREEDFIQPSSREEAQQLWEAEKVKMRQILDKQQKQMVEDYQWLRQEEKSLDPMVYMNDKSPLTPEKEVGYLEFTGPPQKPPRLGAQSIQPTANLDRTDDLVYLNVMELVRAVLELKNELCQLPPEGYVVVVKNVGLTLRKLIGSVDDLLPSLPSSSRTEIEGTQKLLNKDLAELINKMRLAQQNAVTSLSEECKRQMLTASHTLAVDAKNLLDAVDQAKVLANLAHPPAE

[3] = molecular target: T2, Inhibitor of nuclear factor kappa-B kinase subunit epsilon (Homo sapiens) (UniProt Q14164); conditions: at 10 µM
T2 sequence (whole entry): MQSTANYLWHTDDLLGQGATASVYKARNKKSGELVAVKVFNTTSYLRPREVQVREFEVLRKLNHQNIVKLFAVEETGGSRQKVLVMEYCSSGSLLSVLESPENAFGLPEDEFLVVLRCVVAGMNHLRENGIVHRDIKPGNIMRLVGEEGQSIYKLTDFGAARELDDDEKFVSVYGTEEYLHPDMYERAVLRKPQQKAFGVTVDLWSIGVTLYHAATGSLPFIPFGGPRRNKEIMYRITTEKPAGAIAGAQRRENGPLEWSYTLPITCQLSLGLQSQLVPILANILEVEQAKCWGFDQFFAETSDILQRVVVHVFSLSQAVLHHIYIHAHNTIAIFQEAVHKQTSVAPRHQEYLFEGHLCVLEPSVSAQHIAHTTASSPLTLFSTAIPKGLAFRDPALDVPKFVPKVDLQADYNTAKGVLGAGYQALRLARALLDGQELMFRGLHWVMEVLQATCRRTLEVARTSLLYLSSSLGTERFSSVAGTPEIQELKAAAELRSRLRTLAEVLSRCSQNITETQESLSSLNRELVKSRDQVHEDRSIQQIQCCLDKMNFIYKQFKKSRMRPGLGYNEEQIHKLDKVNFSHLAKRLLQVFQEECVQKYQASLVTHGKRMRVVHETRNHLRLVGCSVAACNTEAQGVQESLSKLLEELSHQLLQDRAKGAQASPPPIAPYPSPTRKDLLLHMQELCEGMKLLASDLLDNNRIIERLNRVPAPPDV

[4] = molecular target: Vascular endothelial growth factor receptor 2 (Homo sapiens, UniProt P35968); experiment: Selectivity interaction (KinomeScan (DiscoverX)) EUB0000229b KDR; conditions: at 10 µM
Chain of Vascular endothelial growth factor receptor 2 (P35968 whole entry): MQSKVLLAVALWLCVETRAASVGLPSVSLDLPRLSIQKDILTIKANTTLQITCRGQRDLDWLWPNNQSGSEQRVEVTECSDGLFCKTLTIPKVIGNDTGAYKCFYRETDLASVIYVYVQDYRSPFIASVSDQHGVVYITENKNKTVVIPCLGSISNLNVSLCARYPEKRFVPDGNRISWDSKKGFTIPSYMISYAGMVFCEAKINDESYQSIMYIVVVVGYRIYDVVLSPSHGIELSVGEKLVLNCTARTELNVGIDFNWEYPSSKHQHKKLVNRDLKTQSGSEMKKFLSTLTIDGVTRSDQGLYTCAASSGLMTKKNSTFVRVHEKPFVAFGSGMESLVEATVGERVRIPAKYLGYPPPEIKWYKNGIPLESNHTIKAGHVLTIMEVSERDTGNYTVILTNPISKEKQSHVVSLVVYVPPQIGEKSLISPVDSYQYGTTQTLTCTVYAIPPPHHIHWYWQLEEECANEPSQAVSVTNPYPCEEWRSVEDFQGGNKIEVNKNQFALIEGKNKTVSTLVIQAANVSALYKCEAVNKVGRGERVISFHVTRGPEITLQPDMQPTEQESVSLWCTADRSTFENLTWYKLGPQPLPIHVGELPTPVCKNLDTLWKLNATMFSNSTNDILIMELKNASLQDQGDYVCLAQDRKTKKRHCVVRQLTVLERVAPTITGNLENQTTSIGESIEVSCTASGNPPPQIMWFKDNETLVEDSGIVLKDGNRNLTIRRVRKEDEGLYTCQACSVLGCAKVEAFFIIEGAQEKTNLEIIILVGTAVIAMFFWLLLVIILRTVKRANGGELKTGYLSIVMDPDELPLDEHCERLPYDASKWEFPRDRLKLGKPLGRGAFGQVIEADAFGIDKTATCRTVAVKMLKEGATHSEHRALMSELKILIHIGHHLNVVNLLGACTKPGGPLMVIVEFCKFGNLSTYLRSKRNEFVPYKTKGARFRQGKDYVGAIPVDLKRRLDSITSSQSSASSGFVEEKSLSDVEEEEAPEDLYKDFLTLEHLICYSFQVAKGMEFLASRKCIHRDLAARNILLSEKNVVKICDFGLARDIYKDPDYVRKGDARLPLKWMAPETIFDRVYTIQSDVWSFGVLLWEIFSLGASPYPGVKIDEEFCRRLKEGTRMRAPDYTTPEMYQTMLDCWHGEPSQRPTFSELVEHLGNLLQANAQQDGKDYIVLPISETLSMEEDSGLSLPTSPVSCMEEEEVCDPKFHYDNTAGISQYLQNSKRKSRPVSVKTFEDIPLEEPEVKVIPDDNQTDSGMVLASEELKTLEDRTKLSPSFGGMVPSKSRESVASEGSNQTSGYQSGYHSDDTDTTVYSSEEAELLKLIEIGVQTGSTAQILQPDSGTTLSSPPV

[5] = molecular target: T3, Mitogen-activated protein kinase kinase kinase 7 (Homo sapiens) (UniProt O43318); experiment: Selectivity interaction (KinomeScan (DiscoverX)) EUB0001079a MAP3K7; conditions: at 1 µM
T3 sequence (whole entry): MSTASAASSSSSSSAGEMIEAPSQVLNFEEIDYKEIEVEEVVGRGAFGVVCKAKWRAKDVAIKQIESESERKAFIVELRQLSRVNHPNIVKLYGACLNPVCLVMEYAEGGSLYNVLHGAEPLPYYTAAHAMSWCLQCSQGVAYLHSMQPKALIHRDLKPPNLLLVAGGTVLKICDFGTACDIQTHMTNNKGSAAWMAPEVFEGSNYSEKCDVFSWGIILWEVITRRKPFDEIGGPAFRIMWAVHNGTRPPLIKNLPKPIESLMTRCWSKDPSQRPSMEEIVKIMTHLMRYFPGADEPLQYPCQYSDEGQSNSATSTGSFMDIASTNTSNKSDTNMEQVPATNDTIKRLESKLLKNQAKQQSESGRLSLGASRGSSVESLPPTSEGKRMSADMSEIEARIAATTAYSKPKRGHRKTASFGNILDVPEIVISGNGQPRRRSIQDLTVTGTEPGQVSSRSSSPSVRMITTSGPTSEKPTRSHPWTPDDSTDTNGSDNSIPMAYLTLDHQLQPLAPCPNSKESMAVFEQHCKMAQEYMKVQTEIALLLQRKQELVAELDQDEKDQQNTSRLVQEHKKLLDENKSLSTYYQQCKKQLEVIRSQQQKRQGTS

[6] = molecular target: T4, Serine/threonine-protein kinase STK11 (Homo sapiens) (UniProt Q15831); experiment: Selectivity interaction (KinomeScan (DiscoverX)) EUB0000092b STK11; conditions: at 10 µM
T4 sequence (whole entry): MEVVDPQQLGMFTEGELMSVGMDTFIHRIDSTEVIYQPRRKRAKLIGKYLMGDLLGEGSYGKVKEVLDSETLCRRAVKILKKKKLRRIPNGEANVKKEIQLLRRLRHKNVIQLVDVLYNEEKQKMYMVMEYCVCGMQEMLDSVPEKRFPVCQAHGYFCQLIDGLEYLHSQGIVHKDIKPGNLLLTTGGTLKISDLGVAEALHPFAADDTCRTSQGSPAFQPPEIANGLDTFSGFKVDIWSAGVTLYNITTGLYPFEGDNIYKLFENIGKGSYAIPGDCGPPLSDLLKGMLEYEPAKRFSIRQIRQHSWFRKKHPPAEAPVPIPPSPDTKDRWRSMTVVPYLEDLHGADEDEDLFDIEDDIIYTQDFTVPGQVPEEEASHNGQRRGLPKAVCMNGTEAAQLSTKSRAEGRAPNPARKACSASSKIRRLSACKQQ

- % of inhibition ([1]; at 0.01 µM): -3.6%
- % of inhibition ([1]; at 0.04 µM): 31.1%
- % of inhibition ([1]; at 0.2 µM): 72.5%
- % of inhibition ([1]; at 1 µM): 89.6%
- % of inhibition ([1]; at 5 µM): > 98%
- % of inhibition [2]: -0.9%
SMILES: CC[C@@H]1[C@H](F)C(=O)N[C@@H]1COc1nccc2cc(C(N)=O)c(OC)cc12 [ZIMLOVISERTIB]

- % of control [3]: 100%
SMILES: CCN(CC)CCCCNc1ncc2cc(-c3cc(OC)cc(OC)c3)c(NC(=O)NC(C)(C)C)nc2n1

SMILES: COc1cc(N(C)c2ccnc3ccc(C(F)(F)F)cc23)cc(OC)c1OC
- % binding [4]: 85%

SMILES: Nc1cnc(N2CCc3cc(S(=O)(=O)Nc4c(F)cc(Cl)cc4F)cc(N4CCCC4=O)c32)nc1 [TP-020n]
- % of control [5]: 100%

SMILES: CCC(=O)N1CCN(c2ccc(-n3c(=O)ccc4cnc5ccc(-c6cnc7ccccc7c6)cc5c43)cc2C(F)(F)F)CC1
- % of control [6]: 100%
